From paper PMC8482815, “Targeting Host Glycolysis as a Strategy for Antimalarial Development” (Frontiers in Cellular and Infection Microbiology, 2021)
“And” between values parts separate entries of the source, which are not always exact repeats. Equal values may be shown once.

Test system: human erythrocytes
Test: Untargeted metabolomics and 13C-glucose tracing of enolase inhibitor treated erythrocytes
Format: cell-based
Details: 0h
Method: Freshly collected erythrocytes were washed, resuspended to 10% hematocrit in buffer [25mM HEPES (pH 7.4), 120mM NaCl, 5.4mM KCl, 1.8mM CaCl2, and 1mM NaH2PO4], incubated for 1 hour at 37°C, then centrifuged at 2000xg for 5 minutes at 4°C, resuspended in fresh wash buffer to 30-40% hematocrit, and split into 210µL aliquots of packed erythrocytes. […] All samples were incubated at 37°C shaking at 500 RPM. Triplicate samples of supernatants and packed erythrocytes were collected at 0, 0.5, 1, and 6-hour intervals and snap-frozen in liquid N2.
RBC and media samples were extracted at 1:10 and 1:20 dilutions, respectively, in 5:3:2 MeOH : MeCN:H2O v/v/v, and supernatants analyzed on a Thermo Vanquish UHPLC coupled to a Thermo Q Exactive mass spectrometer, as extensively described ([Nemkov et al., 2015]; [Nemkov et al., 2017]). The extraction buffer was supplemented with 40uM 3-^13C lactate to allow absolute quantification of lactate isotopologues, including lactate generated via glycolysis ([1,2,3-^13C3] enriched) vs. the pentose phosphate pathway ([2,3-^13C2] enriched), as described ([Reisz et al., 2016]). Metabolite assignments, peak area integration and isotopologues distributions were determined using Maven (Princeton University) ([Nemkov et al., 2015]; [Nemkov et al., 2017]).
Data were auto-scaled and normalized to zero-hour time points. Metabolites were removed from the dataset if greater than 50% of the samples contained missing values or the relative standard deviation among replicates exceeded 25%. Additionally, data was filtered using the interquartile range to reduce near-constant values from the experiment by 5%.
A principal component analysis of preprocessed data was plotted with the 95% confidence interval minimum volume enclosing ellipsoid for each respective group (MetaboAnalyst, cluster, plotly). A two-way repeated measures analysis of variance (ANOVA) was performed with multiple comparisons corrected for using a false discovery rate p-value cutoff of 0.05. Metabolite-Pathway analysis was performed using the R package of MetaboAnalyst, as previously described ([Xia and Wishart, 2010]). Metabolite-Protein nodal analysis was performed using omicsnet.ca and as previously described ([Zhou and Xia, 2018]).

[1] = treated erythrocytes, one value per replicate sample, polarity +
[2] = treated erythrocytes, one value per replicate sample, polarity -
[3] = treated erythrocytes, replicate samples

## CC(C)(C)C(=O)OCOP(=O)(OCOC(=O)C(C)(C)C)C1CCCN(O)C1=O (stereo not shown) [POMHEX]
Replicate samples
  AMP level (metabolomics signal): 2.43E+06 and 4.08E+06 and 2.38E+06
  ATP level (metabolomics signal): 7.62E+03 and 7.58E+03 and 9.00E+03
  Adenine level (metabolomics signal): 1.31E+05 and 1.38E+05 and 1.32E+05
  Cytosine level (metabolomics signal): 8.55E+04 and 2.38E+05 and 4.74E+05
  L-alanine level (metabolomics signal): 7.28E+06 and 6.97E+06 and 9.28E+06
  L-arginine level (metabolomics signal): 7.34E+06 and 1.51E+07 and 4.28E+06
  L-asparagine level (metabolomics signal): 3.07E+06 and 3.14E+06 and 2.95E+06
  L-aspartate level (metabolomics signal): 3.52E+07 and 3.22E+07 and 3.54E+07
  L-cysteine level (metabolomics signal): 4.11E+05 and 4.42E+05 and 1.93E+05
  L-glutamate level (metabolomics signal): 3.91E+07 and 3.64E+07 and 4.16E+07
  L-glutamine level (metabolomics signal): 3.51E+07 and 3.65E+07 and 2.77E+07
  L-histidine level (metabolomics signal): 1.77E+06 and 1.86E+06 and 1.64E+06
  L-isoleucine level (metabolomics signal): 0.00E+00 and 2.79E+07 and 2.01E+07
  L-leucine level (metabolomics signal): 1.13E+08 and 1.29E+08 and 1.02E+08
  L-lysine level (metabolomics signal): 3.76E+06 and 3.91E+06 and 3.34E+06
  L-methionine level (metabolomics signal): 1.20E+07 and 1.28E+07 and 9.77E+06
  L-phenylalanine level (metabolomics signal): 3.89E+06 and 5.35E+06 and 4.43E+06
  L-proline level (metabolomics signal): 3.87E+07 and 4.04E+07 and 2.78E+07
  L-serine level (metabolomics signal): 2.27E+06 and 2.30E+06 and 2.07E+06
  L-threonine level (metabolomics signal): 3.34E+06 and 3.50E+06 and 3.23E+06
  L-tryptophan level (metabolomics signal): 4.61E+06 and 3.92E+06 and 4.51E+06
  L-tyrosine level (metabolomics signal): 1.31E+07 and 1.44E+07 and 1.06E+07
  L-valine level (metabolomics signal): 1.25E+08 and 1.20E+08 and 1.19E+08
  dCMP level (metabolomics signal): 2.66E+04 and 2.57E+04 and 1.91E+04
  dTMP level (metabolomics signal): 1.47E+06 and 1.26E+06 and 9.65E+05
  glycine level (metabolomics signal): 1.29E+06 and 1.21E+06 and 1.30E+06
[1]
  N-Acyl-D-aspartate (C06380) metabolite signal: 2.82E+05 and 3.24E+05 and 2.89E+05
  Poly-gamma-D-glutamate (C05723) metabolite signal: 2.28E+07 and 2.38E+07 and 1.86E+07
[2]
  D-Ribitol 5-phosphate (C01068) metabolite signal: 1.18E+04 and 2.78E+04 and 2.55E+04
  D-glucono-1,5-lactone (C00198) metabolite signal: 7.35E+05 and 6.39E+05 and 6.34E+05
  L-Noradrenaline (C00547) metabolite signal: 2.10E+05 and 2.67E+05 and 1.54E+05
  Oxalosuccinate (C05379) metabolite signal: 1.80E+05 and 1.89E+05 and 1.75E+05
  Pyridoxamine (C00534) metabolite signal: 3.47E+04 and 2.11E+04 and 4.13E+04
  Thioredoxin disulfide (C00343) metabolite signal: 8.56E+04 and 8.74E+04 and 6.44E+04
[3]
  1-4-beta-D-Xylan (metabolite signal): 2.75E+05 and 3.19E+05 and 2.60E+05
  2-Hydroxyglutarate/Citramalate (C02630) metabolite signal: 1.87E+05 and 1.44E+05 and 1.36E+05
  5-6-Dihydrothymine (C00906) metabolite signal: 3.37E+05 and 3.23E+05 and 2.70E+05
  5-10-Methenyltetrahydrofolate (metabolite signal): 3.52E+05 and 3.49E+05 and 3.48E+05
  5-Hydroxyisourate (C11821) metabolite signal: 4.58E+06 and 4.14E+06 and 5.16E+06
  5-L-Glutamyl-taurine (metabolite signal): 1.13E+05 and 1.05E+05 and 1.57E+05
  5-Oxoproline (metabolite signal): 1.19E+06 and 1.09E+06 and 9.91E+05
  (S)(+)-Allantoin (C02350) metabolite signal: 4.00E+04 and 4.50E+04 and 4.43E+04
  Allantoate (C00499) metabolite signal: 3.63E+05 and 4.40E+05 and 2.26E+05
  Ascorbate (metabolite signal): 1.03E+05 and 1.39E+05 and 1.05E+05
  CMP-N-acetylneuraminate (metabolite signal): 3.22E+04 and 2.63E+04 and 3.17E+04
  Carnosine (metabolite signal): 2.22E+05 and 1.73E+05 and 2.52E+05
  Citrate (C00158) metabolite signal: 2.73E+04 and 3.19E+04 and 2.59E+04
  Creatine (metabolite signal): 2.64E+08 and 2.63E+08 and 2.96E+08
  Creatinine (metabolite signal): 3.90E+06 and 3.59E+06 and 3.78E+06
  Cys-Gly (metabolite signal): 1.91E+06 and 2.03E+06 and 2.13E+06
  D-Glucosamine (metabolite signal): 6.56E+04 and 1.26E+05 and 1.11E+05
  D-Glucose (C00031) metabolite signal: 7.03E+06 and 7.96E+06 and 6.07E+06
  D-Ribose (C00121) metabolite signal: 2.42E+05 and 2.08E+05 and 2.00E+05
  Dehydroascorbate (metabolite signal): 6.66E+03 and 1.26E+04 and 9.16E+03
  Dihydrofolate (metabolite signal): 2.17E+06 and 2.08E+06 and 1.28E+06
  Dimethylglycine (metabolite signal): 1.13E+06 and 1.12E+06 and 1.22E+06
  Diphosphate (C00013) metabolite signal: 2.29E+03 and 2.81E+03 and 1.30E+03
  Fumarate (C00122) metabolite signal: 1.70E+05 and 1.53E+05 and 1.29E+05
  Glutathione (C00051) metabolite signal: 1.29E+08 and 1.42E+08 and 1.45E+08
  Glutathione disulfide (metabolite signal): 4.07E+05 and 2.99E+05 and 3.44E+05
  Hypoxanthine (C00262) metabolite signal: 1.23E+05 and 8.50E+04 and 1.07E+05
  IMP (C00130) metabolite signal: 2.07E+04 and 4.13E+04 and 2.42E+04
  Inosine (C00294) metabolite signal: 1.23E+05 and 1.19E+05 and 1.09E+05
  L-Citrulline (metabolite signal): 2.18E+06 and 2.13E+06 and 2.77E+06
  L-Homoserine (metabolite signal): 1.85E+05 and 2.19E+05 and 1.31E+05
  Lactate (C01432) metabolite signal: 7.44E+06 and 7.84E+06 and 7.12E+06
  Malate (C00149) metabolite signal: 4.07E+05 and 3.13E+05 and 3.03E+05
  Mannitol (C00392) metabolite signal: 1.01E+05 and 1.11E+05 and 1.22E+05
  N-Acetylneuraminate (metabolite signal): 3.05E+04 and 3.27E+04 and 2.27E+04
  N-Glycoloyl-neuraminate (metabolite signal): 2.02E+05 and 2.52E+05 and 1.61E+05
  NAD+ (C00003) metabolite signal: 3.20E+05 and 3.25E+05 and 4.11E+05
  Nicotinamide (C00153) metabolite signal: 2.56E+07 and 2.61E+07 and 2.89E+07
  Ornithine (metabolite signal): 2.51E+06 and 2.56E+06 and 2.47E+06
  Oxaloacetate (C00036) metabolite signal: 4.82E+04 and 5.32E+04 and 4.35E+04
  Phosphoserine (metabolite signal): 1.31E+05 and 1.59E+05 and 1.52E+05
  Putrescine (metabolite signal): 5.04E+04 and 6.26E+04 and 7.87E+04
  Pyridoxal (C00250) metabolite signal: 5.06E+04 and 4.81E+04 and 5.68E+04
  Pyruvate (C00022) metabolite signal: 8.21E+05 and 7.91E+05 and 7.06E+05
  S-Glutathionyl-L-cysteine (metabolite signal): 1.68E+05 and 1.57E+05 and 8.75E+04
  Sedoheptulose 1-phosphate (C06222) metabolite signal: 4.53E+04 and 4.14E+04 and 2.92E+04
  Spermidine (metabolite signal): 9.43E+06 and 1.01E+07 and 9.63E+06
  Spermine (metabolite signal): 8.86E+06 and 9.58E+06 and 9.08E+06
  Succinate (C00042) metabolite signal: 1.10E+05 and 1.06E+05 and 1.08E+05
  Thymidine (C00214) metabolite signal: 1.93E+04 and 1.39E+04 and 1.28E+04
  UDP (C00015) metabolite signal: 3.47E+05 and 4.31E+05 and 2.43E+05
  UDP-N-acetyl-D-glucosamine (metabolite signal): 2.77E+04 and 2.13E+04 (2×)
  UDP-glucose (C00029) metabolite signal: 8.05E+04 and 6.15E+04 and 6.31E+04
  Urate (C00366) metabolite signal: 4.79E+04 and 4.62E+04 and 3.28E+04
  Xanthine (C00385) metabolite signal: 3.87E+05 and 3.78E+05 and 3.91E+05
  alpha-D-Glucosamine 1-phosphate (metabolite signal): 1.72E+06 and 1.66E+06 and 2.32E+06
  alpha-D-Ribose 1-phosphate (C00620) metabolite signal: 1.60E+05 and 1.43E+05 and 1.11E+05
  gamma-Glutamyl-gamma-aminobutyrate (metabolite signal): 8.08E+04 and 5.90E+04 and 1.10E+05
  gamma-L-Glutamyl-D-alanine (metabolite signal): 2.48E+04 and 2.19E+04 and 1.85E+04
  gamma-L-Glutamyl-L-cysteine (metabolite signal): 2.81E+04 and 3.64E+04 and 2.51E+04
